Results from PubChem BioAssay (NCI).
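In this assay, cells in 96-well plates receive the compound at five concentrations for 48 hours. Endpoints are linearly interpolated between the surrounding concentrations. At the TGI there is no net growth.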

Columns and labels:
Assay in all cases: inhibition of tumour cell growth, NCI panel, 48 h
786-0 renal = system: 786-0 renal
CAKI-1 renal = system: CAKI-1 renal
HCC-2998 colon = system: HCC-2998 colon
HCT-116 colon = system: HCT-116 colon
MCF7 breast = system: MCF7 breast
RPMI-8226 leukemia = system: RPMI-8226 leukemia
SF-295 CNS = system: SF-295 CNS
SR leukemia = system: SR leukemia

Structure (SMILES)	TGI (786-0 renal)	TGI (CAKI-1 renal)	TGI (HCC-2998 colon)	TGI (HCT-116 colon)	TGI (MCF7 breast)	TGI (RPMI-8226 leukemia)	TGI (SF-295 CNS)	TGI (SR leukemia)
O=C(O)CCC(NC(=O)/C(=C/c1ccccc1)NC(=O)c1ccccc1)C(=O)O (stereo not drawn)	> 100 µM	> 100 µM	> 100 µM	> 100 µM	> 100 µM	> 100 µM	> 100 µM	
Cc1cc(S(=O)(=O)Nc2n[nH]c(N)n2)c(S)cc1Cl	> 10 µM	> 10 µM	> 10 µM	> 10 µM	> 10 µM	> 10 µM	> 10 µM	
N#Cc1nc(-c2ccccn2)c(-c2ccccn2)nc1C#N	6.28 µM	6.81 µM	17.6 µM	3.27 µM	28 µM	> 100 µM	7.92 µM	> 33.9 µM
CN1CCN(C2CC(=O)c3c(Cl)sc(Cl)c32)CC1 (stereo not drawn)	21.8 µM	39.6 µM	24.6 µM	19.2 µM	> 100 µM	15.5 µM	> 31.6 µM	> 100 µM
CCOC(=O)c1sc2[n+](c1C)C(=O)/C(=C/c1ccccc1Cl)S2	26.1 µM	24.5 µM		> 48 µM	15 µM	15.7 µM	4.75 µM	17 µM
C/C(=N\Nc1nc2ccccc2n1C)c1ccncn1	20.3 µM	> 75 µM	> 100 µM	> 39.8 µM	> 100 µM		> 100 µM	> 100 µM
CC(C)(C)C1=CC(O)(c2c3ccccc3c(C3(O)C=C(C(C)(C)C)C(=O)C(C(C)(C)C)=C3)c3ccccc23)C=C(C(C)(C)C)C1=O	> 100 µM	> 100 µM		> 100 µM	> 100 µM	> 100 µM	> 100 µM	
COc1nc2ncc([C@@H](O)[C@H](O)CO)nc2c(=O)[nH]1	> 100 µM	> 100 µM		> 100 µM	> 100 µM	> 100 µM	> 100 µM	> 100 µM
CCOC(=O)/C=C/C(Br)=C(Br)/C=C/C(=O)OCC	8.61 µM	13.9 µM	49 µM	17 µM	26.2 µM	15.6 µM	28.8 µM	34.4 µM
CC(=O)c1nc(C#N)c(N)o1	> 100 µM	> 100 µM	> 100 µM	> 100 µM	> 100 µM	> 100 µM	> 100 µM	
CSC(=N/N=C(\C)c1ccc(S(=O)(=O)N(C)c2ccccc2)cc1)SC	> 100 µM	> 100 µM	> 100 µM	> 100 µM	> 100 µM	> 100 µM	> 100 µM	> 100 µM
CC(NC1=NCCO1)c1ccco1 (stereo not drawn)	> 100 µM	> 100 µM	> 100 µM	> 100 µM	> 100 µM	> 100 µM	> 100 µM	> 100 µM
O=c1[nH]c(=O)c2c([nH]1)[nH]c1ccccc12	> 100 µM	> 100 µM		> 100 µM	> 100 µM	> 100 µM	> 100 µM	> 100 µM
O=C(c1cccs1)N(C(=O)N1CCCCC1)c1ccccc1	> 100 µM	> 100 µM		> 100 µM	> 100 µM	> 100 µM	> 100 µM	
Cc1nc(C)c(C(=O)NNC(=O)c2ccccc2)cc1C(=O)NNC(=O)c1ccccc1	> 100 µM	> 100 µM	> 100 µM	> 100 µM	> 100 µM	> 100 µM	> 100 µM	
Cc1cccc2c1C(=O)/C(=C/c1ccccc1C(=O)O)C2	> 100 µM	> 100 µM	> 100 µM	> 100 µM	> 100 µM	> 100 µM	> 100 µM	
COc1cc(OC)cc(-c2nc3ccccc3c(=O)[nH]2)c1	66.2 µM	> 100 µM	> 100 µM	> 100 µM		> 100 µM	> 100 µM	
NS(=O)(=O)c1ccc(NS(=O)(=O)c2ccc(NC(=O)N(c3ccccc3)c3ccccc3)cc2)cc1	> 100 µM	> 100 µM		> 100 µM	> 100 µM	94.9 µM	> 100 µM	
CC1CC/C(=C\c2ccc(F)cc2)C2=C1C(c1ccc(F)cc1)NC(=S)N2 (stereo not drawn)	> 100 µM	> 100 µM		> 100 µM	> 100 µM	> 100 µM	> 100 µM	
Nc1nc(Cl)cc(NCC2CC(O)(CO)C2)n1 (stereo not drawn)	> 100 µM	> 100 µM	> 100 µM	> 100 µM	> 100 µM	> 100 µM	> 100 µM	
O=C(CSCC(=O)N/N=C\c1cccc(Br)c1)N/N=C\c1cccc(Br)c1	35.5 µM	37.1 µM		27.9 µM	> 100 µM		29.9 µM	66.1 µM
CC1=CCC(=O)[C@]2(C)C(CC(=O)O)[C@]3(C)C4=C(C)C(c5ccoc5)C[C@@H]4O[C@@H]3[C@H](O)[C@@H]12 (stereo partly drawn)	> 100 µM	> 100 µM	> 100 µM	> 100 µM	> 100 µM	> 100 µM	> 100 µM	
Cn1c(-c2cccs2)cc(-c2ccsc2)c1-c1ccsc1	> 100 µM	> 100 µM	> 100 µM	> 100 µM	> 100 µM		> 100 µM	> 100 µM
COc1ccc(Cn2nc(OCc3ccccc3)c3cc([N+](=O)[O-])ccc32)cc1	> 100 µM		> 100 µM		> 100 µM	> 100 µM	> 100 µM	> 100 µM
Oc1[nH]c2ccccc2c1N=NC(=S)NCc1ccccn1	13.6 µM	11.7 µM	16.5 µM	15.1 µM	14.1 µM	53.9 µM	18 µM	
COc1ccc(-c2nc3ncccn3c2-c2ccc(S(C)(=O)=O)cc2)cc1	> 100 µM	68.7 µM		> 100 µM	81.8 µM	> 100 µM	> 100 µM	> 100 µM
CCOC(=O)C1=C(C)N(c2ccc(Cl)cc2)C2(O)C=CC(=O)C3C(=O)N(c4ccccc4)C(=O)C132 (stereo not drawn)	3.09 µM	4.72 µM		3.14 µM	4.06 µM	3.77 µM	5.25 µM	1.14 µM
c1ccc(C2C3=C(CCCC3)Nc3nnnn32)cc1 (stereo not drawn)	> 100 µM	> 100 µM		> 100 µM	> 100 µM		> 100 µM	> 100 µM
